Earlier results on 71 compounds are cited in patent US20210137911A1, “NOVEL CHRONOTHERAPY BASED ON CIRCADIAN RHYTHMS” (THE TRUSTEES OF THE UNIVERSITY OF PENNSYLVANIA, priority 2014, published 2021).

Like-named read-outs stand apart in the source and are kept apart here. Residues, ends and D or L forms follow the SMILES beside them.

The conditions of the data set: cited from earlier work.
[1] abbreviates: half-life of therapeutic compound as listed in Table 1.
[2] abbreviates: half-life of top selling therapeutic compounds (Table 1).

On to `CCN(C)C(=O)Oc1cccc([C@H](C)N(C)C)c1` [Rivastigmine], for which, under “in vivo”, the “½ Life” value was 1.5 h.
For the compound `CCC1=C(C)CN(C(=O)NCCc2ccc(S(=O)(=O)NC(=O)N[C@H]3CC[C@H](C)CC3)cc2)C1=O` [Glimepiride], the “½ Life” value under setting [1] is 5 h.
As for `N[C@@H]1C[C@H]1c1ccccc1` (racemic) [Tranylcypromine], the “½ Life” value (in vivo) is 1.5 h.
On to `C[C@H]1O[C@H](O[C@H]2[C@H](O)[C@@H](O)[C@@H](O[C@H]3[C@H](O)[C@@H](O)C(O)O[C@@H]3CO)O[C@@H]2CO)[C@H](O)[C@@H](O)[C@@H]1N[C@H]1C=C(CO)[C@@H](O)[C@H](O)[C@H]1O` (some centres unmarked) [Acarbose], for which the “½ Life” value under setting [2] was 2 h.
Take `CCCCS(=O)(=O)N[C@@H](Cc1ccc(OCCCCC2CCNCC2)cc1)C(=O)O` [Tirofiban]: the “½ Life” value (in vivo) was 2 h.
As for `CCc1cc2c(s1)N(C)C(=O)CN=C2c1ccccc1Cl` [Clotiazepam], the “½ Life” value under setting [2] is 4 h.
Turning to `CC(C)C[C@H]1C(=O)N2CCC[C@H]2[C@]2(O)O[C@](NC(=O)[C@@H]3C=C4c5cccc6[nH]c(Br)c(c56)C[C@H]4N(C)C3)(C(C)C)C(=O)N12` [Bromocriptine], under setting [2], the “½ Life” value was 2 h.
As to `O=C(O)CCCO` [Gamma Hydroxybutyric Acid], the “½ Life” value under setting [1] is 0.5 h.
With `CN[C@@H](C)Cc1ccccc1` [Methamphetamine], under setting [1], the “½ Life” value is 4 h.
Consider `COc1ccc2c3c1O[C@H]1[C@@H](O)C=C[C@H]4[C@@H](C2)N(C)CC[C@@]341` [Codeine], for which the “½ Life” value (in vivo) was 3 h.
Consider `CC(C)C(=O)O[C@@H](OC(=O)NC[C@H](CC(=O)O)c1ccc(Cl)cc1)C(C)C` [Arbaclofen Placarbil], for which the “½ Life” value (in vivo) was 0.1 h.
`O=C1CN(/N=C/c2ccc(-c3ccc([N+](=O)[O-])cc3)o2)C(O)=N1` [Dantrolene]: the “½ Life” value under setting [2] was 4 h.
With `O=C(O)C1N=C(c2ccccc2)c2cc(Cl)ccc2NC1=O` (centres unmarked) [Clorazepate], under setting [2], the “½ Life” value was 2 h.
Consider `CC(=O)c1ccc(S(=O)(=O)NC(=O)NC2CCCCC2)cc1` [Acetohexamide], for which the “½ Life” value under setting [2] is 1.3 h.
Regarding `CC(C)OC(=O)CCC/C=C\C[C@@H]1[C@@H](/C=C/[C@@H](O)COc2cccc(C(F)(F)F)c2)[C@H](O)C[C@@H]1O` [Travoprost], the “½ Life” value (in vivo) is 0.75 h.
Regarding `NC(=O)NO` [Hydroxyurea], under setting [1], the “½ Life” value is 3 h.
Consider `Cc1[nH]c(=O)c(C#N)cc1-c1ccncc1` [Milrinone], for which the “½ Life” value under setting [1] is 2.3 h.
Take `O=[N+]([O-])O[C@@H]1CO[C@H]2[C@@H]1OC[C@@H]2O` [Isosorbide Mononitrate]: the “½ Life” value under setting [1] was 5 h.
Regarding `OCCN1C[C@H](O)[C@@H](O)[C@H](O)[C@H]1CO` [Miglitol], under setting [1], the “½ Life” value is 2 h.
Take `O=[N+]([O-])[O-].O=[N+]([O-])[O-].O=[N+]([O-])[O-].[Ga+3]` [Gallium nitrate]: under setting [1], the “½ Life” value was 1 h.
With `CCC1=C(C)c2cc3[n-]c(cc4[n-]c(cc5nc(cc1n2)C(C)=C5CC)c(C)c4CCC(=O)O)c(CCC(=O)O)c3C.[Cl-].[Cl-].[Sn+4]` [Stannsoporfin], the “½ Life” value (in vivo) is 3.8 h.
On to `Nc1ncn([C@H]2C[C@H](O)[C@@H](CO)O2)c(=O)n1` [Decitabine], for which the “½ Life” value under setting [2] was 0.51 h.
Turning to Pentosan Polysulfate, where the note is “in vivo”, the “½ Life” value was 4.8 h.
On to `Cc1cn([C@H]2C[C@H](N=[N+]=[N-])[C@@H](CO)O2)c(=O)[nH]c1=O` [Zidovudine], for which the “½ Life” value (in vivo) is 1.1 h.
`Cn1c(=O)c2c(ncn2C)n(C)c1=O` [Caffeine]: the “½ Life” value (in vivo) was 3 h.
`COC(=O)[C@H](Cc1ccccc1)NC(=O)[C@@H](N)CC(=O)O` [Aspartame] (H-Asp-Phe-OMe): under setting [2], the “½ Life” value is 4.3 h.
Consider `CCCCC[C@H](O)/C=C/[C@H]1[C@H](O)CC(=O)[C@@H]1C/C=C\CCCC(=O)O` [Dinoprostone], for which the “½ Life” value under setting [2] is 0.0833 h.
As for `C[C@@](Cc1ccc(O)c(O)c1)(NN)C(=O)O` [Carbidopa], the “½ Life” value under setting [2] is 1 h.
On to `COc1ccc(Cc2nccc3cc(OC)c(OC)cc23)cc1OC` [Papaverine], for which, where the note is “in vivo”, the “½ Life” value is 0.5 h.
For the compound `COc1cc([C@@H]2c3cc4c(cc3[C@@H](O[C@@H]3O[C@@H]5CO[C@@H](C)O[C@H]5[C@H](O)[C@H]3O)[C@H]3COC(=O)[C@H]23)OCO4)cc(OC)c1O` [Etoposide], the “½ Life” value under setting [2] was 4 h.
Turning to `Oc1ccc(CCCCNC[C@H](O)c2ccc(O)c(O)c2)cc1` [Arbutamine], the “½ Life” value (in vivo) is 0.133 h.
As to `Cc1ccc(-c2nc3ccc(C)cn3c2CC(=O)N(C)C)cc1` [Zolpidem], for the setting “in vivo”, the “½ Life” value was 2.6 h.
On to `CN1CCc2cccc3c2[C@H]1Cc1ccc(O)c(O)c1-3` [Apomorphine], for which, under setting [2], the “½ Life” value is 0.66 h.
For the compound OspA lipoprotein, the “½ Life” value under setting [1] is 1.2 h.
Turning to `Cn1cc[nH]c1=S` [Methimazole], under setting [1], the “½ Life” value is 5 h.
Regarding `CC(NCCc1ccc(O)cc1)C(O)c1ccc(O)cc1` (centres unmarked) [Ritodrine], for the setting “in vivo”, the “½ Life” value was 1.7 h.
Regarding `NC(=O)CC[C@@H]1NC(=O)[C@H](Cc2ccccc2)NC(=O)[C@H](Cc2ccc(O)cc2)NC(=O)CCSSC[C@@H](C(=O)N2CCC[C@H]2C(=O)N[C@H](CCCN=C(N)N)C(=O)NCC(N)=O)NC(=O)[C@H](CC(N)=O)NC1=O` [Desmopressin], where the note is “in vivo”, the “½ Life” value is 1 h.
Turning to `COCCOC(=O)C1=C(C)NC(C)=C(C(=O)OC(C)C)C1c1cccc([N+](=O)[O-])c1` (centres unmarked) [Nimodipine], the “½ Life” value under setting [1] is 1.7 h.
Consider Tositumomab, for which the “½ Life” value (in vivo) is 0.8 h.
For the compound `NC(=O)CC[C@@H]1NC(=O)[C@H](Cc2ccccc2)NC(=O)[C@H](Cc2ccc(O)cc2)NC(=O)[C@@H](N)CSSC[C@@H](C(=O)N2CCC[C@H]2C(=O)N[C@@H](CCCN=C(N)N)C(=O)NCC(N)=O)NC(=O)[C@H](CC(N)=O)NC1=O` [Vasopressin], the “½ Life” value (in vivo) was 0.166 h.
Take `C[C@@H]1C[C@H]2[C@@H]3CCC4=CC(=O)C=C[C@]4(C)[C@@]3(Cl)[C@@H](O)C[C@]2(C)[C@@]1(O)C(=O)CCl` [Mometasone]: the “½ Life” value under setting [1] is 5.8 h.
Turning to `C[C@]12C=CC(=O)C=C1CC[C@H]1[C@@H]3C[C@@H](O)[C@](O)(C(=O)CO)[C@@]3(C)C[C@H](O)[C@@]12F` [Triamcinolone], the “½ Life” value (in vivo) was 1.466 h.
In the case of `N#C[C@@H]1CCCN1C(=O)CNC12CC3CC(CC(O)(C3)C1)C2` [Vildagliptin], the “½ Life” value (in vivo) is 1.5 h.
As to `CCOC(=O)[C@H](CCc1ccccc1)N[C@@H](C)C(=O)N1Cc2cc(OC)c(OC)cc2C[C@H]1C(=O)O` [Moexipril], the “½ Life” value under setting [1] is 1 h.
For `c1cc(CN2CCCNCCNCCCNCC2)ccc1CN1CCCNCCNCCCNCC1` [Plerixafor], under setting [1], the “½ Life” value was 4.4 h.
As for `COc1cccc2c1C(=O)c1c(O)c3c(c(O)c1C2=O)C[C@@](O)(C(=O)CO)C[C@@H]3O[C@H]1C[C@H](N)[C@@H](O)[C@H](C)O1` [Epirubicin], the “½ Life” value under setting [2] was 3 h.
Consider `CC(CCc1ccc(O)cc1)NCCc1ccc(O)c(O)c1` (centres unmarked) [Dobutamine], for which the “½ Life” value under setting [2] is 0.033 h.
In the case of `COc1ccc2c3c1O[C@H]1C(=O)CC[C@H]4[C@@H](C2)N(C)CC[C@]314` [Hydrocodone], where the note is “in vivo”, the “½ Life” value was 1.25 h.
Regarding `CNS(=O)(=O)CCc1ccc2[nH]cc(C3CCN(C)CC3)c2c1` [Naratriptan], the “½ Life” value under setting [1] is 5 h.
For the compound Defibrotide, for the setting “in vivo”, the “½ Life” value was 1 h.
As to `OCc1cc(C(O)CNCCCCCCOCCCCc2ccccc2)ccc1O` (centres unmarked) [Salmeterol], for the setting “in vivo”, the “½ Life” value is 5.5 h.
As to `Nc1ccn([C@@H]2O[C@H](CO)[C@@H](O)[C@@H]2O)c(=O)n1` [Cytarabine], the “½ Life” value (in vivo) was 0.166 h.
As for `COc1ccnc(C[S+]([O-])c2nc3ccc(OC(F)F)cc3[nH]2)c1OC` (centres unmarked) [Pantoprazole], under setting [1], the “½ Life” value is 1 h.
On to Insulin Detemir, for which the “½ Life” value (in vivo) is 5 h.
On to `CCCC(=O)Nc1ccc(OCC(O)CNC(C)C)c(C(C)=O)c1` (centres unmarked) [Acebutolol], for which the “½ Life” value under setting [2] was 3 h.
In the case of `NCC(=O)CCC(=O)O` [Aminolevulinic acid], the “½ Life” value under setting [2] was 0.7 h.
Turning to `N[C@@H](Cc1ccc(O)c(O)c1)C(=O)O` [L-DOPA], the “½ Life” value (in vivo) is 0.833 h.
Consider `Clc1ccc2nsnc2c1NC1=NCCN1` [Tizanidine], for which the “½ Life” value (in vivo) is 2.5 h.
On to `O=C1NC(c2ccccc2)(c2ccccc2)C(=O)N1COP(=O)(O)O` [Fosphenytoin], for which the “½ Life” value under setting [2] is 0.25 h.
Consider `Cc1cnc(C(=O)NCCc2ccc(S(=O)(=O)NC(=O)NC3CCCCC3)cc2)cn1` [Glipizide], for which the “½ Life” value under setting [1] was 2 h.
As for `CC[C@@]1(O)C(=O)OCc2c1cc1n(c2=O)Cc2cc3c(CN(C)C)c(O)ccc3nc2-1` [Topotecan], the “½ Life” value (in vivo) is 2 h.
`COc1cc2c(cc1OC)[C@@H](Cc1cc(OC)c(OC)c(OC)c1)[N+](C)(CCCOC(=O)CC/C=C/CCC(=O)OCCC[N+]1(C)CCc3cc(OC)c(OC)cc3[C@H]1Cc1cc(OC)c(OC)c(OC)c1)CC2` (some centres unmarked) [Mivacurium]: the “½ Life” value under setting [1] is 1.7 h.
In the case of `O=C(NCCN1CCOCC1)c1ccc(Cl)cc1` [Moclobemide], the “½ Life” value under setting [1] is 1 h.
On to `O=C(O)c1cccnc1Nc1cccc(C(F)(F)F)c1` [Niflumic Acid], for which, under setting [1], the “½ Life” value was 2.5 h.
Consider `CN1C(=O)CC(C)(c2ccccc2)C1=O` (centres unmarked) [Methsuximide], for which the “½ Life” value under setting [1] is 1.4 h.
Take `Brc1c(NC2=NCCN2)ccc2nccnc12` [Brimonidine]: the “½ Life” value under setting [2] is 2 h.
With `CC(C)NCC(O)COc1cccc2[nH]ccc12` (centres unmarked) [Pindolol], the “½ Life” value under setting [1] is 3 h.
Take `CN(C)/N=N/c1[nH]cnc1C(N)=O` [Dacarbazine]: the “½ Life” value under setting [2] was 5 h.
For `C#CCN(C)[C@H](C)Cc1ccccc1` [Selegiline], under “in vivo”, the “½ Life” value was 1.2 h.
Turning to `CCC(C)(C)C(=O)O[C@H]1C[C@@H](C)C=C2C=C[C@H](C)[C@H](CC[C@@H]3C[C@@H](O)CC(=O)O3)[C@H]21` [Simvastatin, reference compound], the half-life entry (see Table 1) is “less than three”.
On to Interferon alfacon-1, for which the “½ Life” value (in vivo) was 1.3 h.
